{"source": "ChEMBL document CHEMBL1150071", "about": "“Konbamidin, a new indole alkaloid from the Okinawan marine sponge Ircinia sp” (J Nat Prod, 1994)", "tested_on": "HeLa", "assay": "Cytotoxicity against human HeLa cells", "assay_type": "functional, cell-based", "data": [{"smiles": "O=C(O)CN[C@H](Cc1c[nH]c2ccccc12)C(=O)O", "note": "[KONBAMIDIN]", "values": [{"measurement": "IC50", "result": 5.4, "unit": "µg/mL"}]}]}
